Measured values published in ChEMBL document CHEMBL4406838, “Neurobehavioral investigation and acetylcholinesterase inhibitory activity study for some new coumarin derivatives” (Eur J Med Chem, 2019).
Active and inactive are the calls of the source. No cut-off for these calls is given here.

Legend:
Mus musculus [1] = experiment: Cognitive enhancing effect in Swiss albino mouse model of STZ-induced cognition deficit assessed as increase in spontaneous alteration at 2.5 mg/kg, po administrated for 15 days and measured for 8 mins by Y-maze test; assay type: functional, organism-based
Mus musculus [2] = experiment: Neuroprotective activity in Swiss albino mouse model of STZ-induced cognition deficit assessed as reduction in Abeta42 deposition level in brain at 2.5 mg/kg, po administrated for 15 days by ELISA; assay type: functional, organism-based
Mus musculus [3] = experiment: Memory enhancement effect in Swiss albino mouse model of STZ-induced cognition deficit assessed as increase in exploratory preference at 2.5 mg/kg, po administrated for 15 days and measured for 5 mins by novel object recognition test; assay type: functional, organism-based
Acetylcholinesterase = Acetylcholinesterase (Homo sapiens, UniProt P22303); experiment: Inhibition of AChE (unknown origin) using acetylthiocholine iodide as substrate by Ellman's method
Acetylcholinesterase, sequence (P22303 whole entry): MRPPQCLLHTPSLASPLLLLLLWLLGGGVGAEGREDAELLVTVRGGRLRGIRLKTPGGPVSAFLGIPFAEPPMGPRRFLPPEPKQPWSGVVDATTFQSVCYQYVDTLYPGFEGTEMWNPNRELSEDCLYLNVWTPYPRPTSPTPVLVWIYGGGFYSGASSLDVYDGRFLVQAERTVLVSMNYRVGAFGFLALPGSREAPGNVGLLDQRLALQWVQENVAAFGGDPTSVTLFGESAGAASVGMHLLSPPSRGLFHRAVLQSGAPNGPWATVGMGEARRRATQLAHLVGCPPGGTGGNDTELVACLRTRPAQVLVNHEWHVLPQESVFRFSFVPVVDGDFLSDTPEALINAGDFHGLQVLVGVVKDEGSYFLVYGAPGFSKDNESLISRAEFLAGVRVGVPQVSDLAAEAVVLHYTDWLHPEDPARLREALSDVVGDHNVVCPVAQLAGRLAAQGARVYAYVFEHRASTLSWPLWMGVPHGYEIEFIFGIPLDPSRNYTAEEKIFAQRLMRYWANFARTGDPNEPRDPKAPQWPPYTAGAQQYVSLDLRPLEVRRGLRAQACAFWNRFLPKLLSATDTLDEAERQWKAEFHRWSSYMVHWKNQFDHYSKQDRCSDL

Mus musculus [4] = experiment: Cognitive enhancing effect in Swiss albino mouse model of STZ-induced cognition deficit assessed as increase in time spent in target quadrant at 2.5 mg/kg, po administrated for 15 days and measured at 5th day of training session for 60 secs by Morris water maze test; assay type: functional, organism-based
Mus musculus [5] = experiment: Cognitive enhancing effect in Swiss albino mouse model of STZ-induced cognition deficit assessed as reduction in escape latency time to find removed platform position at 2.5 mg/kg, po administrated for 15 days and measured for 4 days by Morris water maze test; assay type: functional, organism-based
Mus musculus [6] = experiment: Cognitive enhancing effect in Swiss albino mouse model of STZ-induced cognition deficit assessed as reduction in escape latency time to find removed platform position at 3.7 mg/kg, po administrated for 15 days and measured for 4 days by Morris water maze test; assay type: functional, organism-based
Mus musculus [7] = experiment: Memory enhancement effect in Swiss albino mouse model of STZ-induced cognition deficit assessed as increase in exploratory preference at 3.7 mg/kg, po administrated for 15 days and measured for 5 mins by novel object recognition test; assay type: functional, organism-based
Mus musculus [8] = experiment: Neuroprotective activity in Swiss albino mouse model of STZ-induced cognition deficit assessed as reduction in Abeta42 deposition level in brain at 3.7 mg/kg, po administrated for 15 days by ELISA; assay type: functional, organism-based
Mus musculus [9] = experiment: Cognitive enhancing effect in Swiss albino mouse model of STZ-induced cognition deficit assessed as increase in time spent in target quadrant at 3.7 mg/kg, po administrated for 15 days and measured at 5th day of training session for 60 secs by Morris water maze test; assay type: functional, organism-based
Mus musculus [10] = experiment: Cognitive enhancing effect in Swiss albino mouse model of STZ-induced cognition deficit assessed as increase in spontaneous alteration at 3.7 mg/kg, po administrated for 15 days and measured for 8 mins by Y-maze test; assay type: functional, organism-based
Mus musculus [11] = experiment: Cognitive enhancing effect in Swiss albino mouse model of STZ-induced cognition deficit assessed as increase in time spent in target quadrant at 3.2 mg/kg, po administrated for 15 days and measured at 5th day of training session for 60 secs by Morris water maze test; assay type: functional, organism-based
Mus musculus [12] = experiment: Cognitive enhancing effect in Swiss albino mouse model of STZ-induced cognition deficit assessed as reduction in escape latency time to find removed platform position at 3.2 mg/kg, po administrated for 15 days and measured for 4 days by Morris water maze test; assay type: functional, organism-based
Mus musculus [13] = experiment: Neuroprotective activity in Swiss albino mouse model of STZ-induced cognition deficit assessed as reduction in Abeta42 deposition level in brain at 3.2 mg/kg, po administrated for 15 days by ELISA; assay type: functional, organism-based
Mus musculus [14] = experiment: Memory enhancement effect in Swiss albino mouse model of STZ-induced cognition deficit assessed as increase in exploratory preference at 3.2 mg/kg, po administrated for 15 days and measured for 5 mins by novel object recognition test; assay type: functional, organism-based
Mus musculus [15] = experiment: Cognitive enhancing effect in Swiss albino mouse model of STZ-induced cognition deficit assessed as increase in spontaneous alteration at 3.2 mg/kg, po administrated for 15 days and measured for 8 mins by Y-maze test; assay type: functional, organism-based

| SMILES | IC50 (Acetylcholinesterase) [nM] | further results |
| --- | --- | --- |
| CN(C)c1ccc(/C=N/c2ccc3oc(=O)ccc3c2)cc1 | 41 | Activity (Mus musculus [1]): Active; Activity (Mus musculus [2]): Active; Activity (Mus musculus [3]): Active; Activity (Mus musculus [4]): Active; Activity (Mus musculus [5]): Active |
| O=C1N/C(=N\c2ccc3oc(=O)ccc3c2)S/C1=C/c1ccc(Cl)cc1 | 173 | – |
| O=C1CSC(c2ccc(F)cc2)N1c1ccc2oc(=O)ccc2c1 (stereo not drawn) | 102 | – |
| O=C(CNc1ccc2oc(=O)ccc2c1)N1CCN(c2ccccc2)CC1 | 80 | – |
| O=c1ccc2cc(/N=C/c3ccc(Br)cc3)ccc2o1 | 56.9 | – |
| O=C(CNc1ccc(F)cc1)Nc1ccc2oc(=O)ccc2c1 | 62 | – |
| CN(C)c1ccc(/C=C2/S/C(=N/c3ccc4oc(=O)ccc4c3)NC2=O)cc1 | 84 | – |
| CSc1ccc(C2SCC(=O)N2c2ccc3oc(=O)ccc3c2)cc1 (stereo not drawn) | 311 | – |
| O=C(CNc1ccc2oc(=O)ccc2c1)c1ccccc1 | 148 | – |
| COc1ccc(/C=N/c2ccc3oc(=O)ccc3c2)cc1 | 135 | – |
| CSc1ccc(/C=N/c2ccc3oc(=O)ccc3c2)cc1 | 172 | – |
| O=C(CNc1ccc2oc(=O)ccc2c1)N1CCOCC1 | 37 | Activity (Mus musculus [6]): Active; Activity (Mus musculus [7]): Active; Activity (Mus musculus [8]): Active; Activity (Mus musculus [9]): Active; Activity (Mus musculus [10]): Active |
| COc1ccc(NCC(=O)Nc2ccc3oc(=O)ccc3c2)cc1 | 55.2 | – |
| O=c1ccc2cc(/N=C/c3ccc(Cl)cc3)ccc2o1 | 78.9 | – |
| CSc1ccc(/C=C2/S/C(=N/c3ccc4oc(=O)ccc4c3)NC2=O)cc1 | 151 | – |
| COc1ccc(C(=O)CNc2ccc3oc(=O)ccc3c2)cc1 | 55 | Activity (Mus musculus [11]): Active; Activity (Mus musculus [12]): Active; Activity (Mus musculus [13]): Active; Activity (Mus musculus [14]): Active; Activity (Mus musculus [15]): Active |
| O=C1N/C(=N\c2ccc3oc(=O)ccc3c2)S/C1=C/c1ccc(F)cc1 | 216 | – |
| O=C1N/C(=N\c2ccc3oc(=O)ccc3c2)S/C1=C/c1ccccc1 | 94.1 | – |
| O=c1ccc2cc(/N=C/c3ccc(F)cc3)ccc2o1 | 226 | – |
| O=c1ccc2cc(/N=C/c3ccccc3)ccc2o1 | 114 | – |
| COc1ccc(C2SCC(=O)N2c2ccc3oc(=O)ccc3c2)cc1 (stereo not drawn) | 71.1 | – |
| O=C1N/C(=N\c2ccc3oc(=O)ccc3c2)S/C1=C/c1ccc(Br)cc1 | 276 | – |
| COc1ccc(/C=C2/S/C(=N/c3ccc4oc(=O)ccc4c3)NC2=O)cc1 | 49.8 | – |
